{"source": "patent US7507727B2", "about": "“Substituted quinobenzoxazine analogs and methods of using thereof” (Cylene Pharmaceuticals, Inc., priority 2003, dated 2009)", "key": {"[1]": {"tested_on": "phosphorylated p53 [pS15]", "experiment": "Phosphorylated p53 ELISA in HCT-116 cells", "format": "cell-based", "conditions": "24 hr, 1-5 uM", "experimental": "The protocol for this assay is described as follows. On Day 1, cells were seeded at 2×10^6 cells/10 cm dish/10 mL medium. On day two, cells were treated as follows: control=0.05% DMSO (5 μl DMSO stock/10 ml medium); 1 μM CX3543 (1 μl Stock (10 mM)/10 ml medium); 2 μM CX3543 (2 μl Stock (10 mM)/10 ml medium); 3 μM CX3543 (3 μl Stock (10 mM)/10 ml medium); 4 μM CX3543 (4 μl Stock (10 mM)/10 ml medium) and 5 μM CX3543 (5 μl Stock (10 mM)/10 ml medium).\nOn Day 3, cells were harvested and attached and floating cells were collected. Cells were washed twice with PBS, counted and collected at 4×10^6 cells/sample. The cell pellet was frozen at −80° C. until further use. […]\nTest Procedure. […] After washing, the plate is inverted and tapped dry on absorbance tissue. […]\nWash wells with 400 μl working wash buffer four times. […] After washing, the plate is inverted and tapped try on absorbance tissue. […] After washing, the plate is inverted and tapped try on absorbance tissue. […] Read the plate at A450 nm by setting chromogen blank (=100 μl TMB+100 μl Stop soln) as blank. Read absorbance within 2 hours of assay completion."}, "[2]": {"experiment": "Pharmacokinetic/toxicokinetic evaluation in rats", "format": "in vivo", "conditions": "for Cmax / AUC(0-t) / half-life / AUC(0-inf): rat, plasma", "experimental": "The study was conducted using three (3) test and one (1) control article groups. The high and low test article groups and the control group consisted of 28 animals each and were used to assess tolerance. The medium test article group consisted of 64 animals of which 28 animals were used to assess tolerance and 36 animals were used to determine the level of test article in the blood at various time points after the first and fifth doses in the PK/TK portion of the study. The control article was the solution (5% dextrose in water; D5W) used to dilute the test article prior to administration and was administered at the same volume as the high dose test article group. […] Test and control articles were administered by intravenous (IV) injection into a tail vein over one minute on five consecutive days.\nBlood samples for test article blood level analysis were taken as follows. Approximately 0.3-0.5 mL of blood was taken from three male and three female rats under anesthesia at each sample time point of pre-dose and at the end of injection (Time 0) and at approximately 0.08, 0.25, 0.5, 1, 2, 4, 8, 12, and 24 hours from the end of the injection after the first and fifth doses. Animals used to assess tolerance were terminated one day (for the primary group) or 15 days (for the recovery group) after the last dose. At termination of the tolerance test animals, blood for hematology and clinical chemistry analysis was drawn prior to euthanasia and following euthanasia. A necropsy was performed to include collection of major organs for microscopic evaluation. The animals used for the pk/tk blood sampling only to determine the level of test article were euthanized after the final blood sample was collected without any further sampling or observations.\nPK/TK: Blood samples for test article blood level analysis were taken. Utilizing 18 male and 18 female medium dose animals, approximately 0.3-0.5 mL of blood was taken from three male and three female rats under anesthesia at each sampling time point of pre-dose and at the end of injection (Time 0) and at approximately 0.08, 0.25, 0.5, 1, 2, 4, 8, 12, and 24 hours from the end of the injection after the first and fifth dose. Blood sampling was via retro-orbital bleeding or cardiac puncture bleeding for an animal's terminal sample. Plasma (lithium heparin anticoagulant) samples were prepared and analyzed. General procedures for chemical pathology, necropsy, and histopathology, and statistical methods, for example as described in Example 65, were followed."}}, "note": "Read-outs that look alike come from different tables or passages of the source.", "data": [{"compound": "CN1CCCC1CCNC(=O)c1cn2c3c(c(N4CCC(c5cnccn5)C4)c(F)cc3c1=O)Oc1cc3ccccc3cc1-2", "note": "(stereo not shown) [CX-3543]", "values": [{"measurement": "population of phosphorylated p53", "setting": "[1]", "result": "enhanced"}, {"measurement": "Dose 5 to Dose 1 ratio for AUC(0-24)", "setting": "[2]; female", "result": 1.5}, {"measurement": "Cmax", "setting": "[2]; female, iv, 7.6 mg/kg, Dose 1", "result": 598, "unit": "ng/mL"}, {"measurement": "Cmax", "setting": "[2]; female, iv, 7.6 mg/kg, Dose 5", "result": 1050, "unit": "ng/mL"}, {"measurement": "AUC(0-t)", "setting": "[2]; female, iv, 7.6 mg/kg, female, Dose 1, read-out: AUC(0-24)", "result": 784, "unit": "ng·h/mL"}, {"measurement": "AUC(0-t)", "setting": "[2]; female, iv, 7.6 mg/kg, female, Dose 5, read-out: AUC(0-24)", "result": 1200, "unit": "ng·h/mL"}, {"measurement": "half-life", "setting": "[2]; female, iv, 7.6 mg/kg, female, Dose 5, read-out: terminal half-life (converted)", "result": 4.8, "unit": "h"}, {"measurement": "half-life", "setting": "[2]; female, iv, 7.6 mg/kg, female, IV, Dose 1 (medium dose group, 7.6 mg/kg), read-out: terminal half-life (converted)", "result": 6.6, "unit": "h"}, {"measurement": "half-life", "setting": "[2]; female, iv, […], female, Dose 1, […] IV, read-out: T1/2 (converted)", "result": 6.6, "unit": "h"}, {"measurement": "half-life", "setting": "[2]; female, iv, […], female, Dose 5, […] IV once daily, read-out: T1/2 (converted)", "result": 4.8, "unit": "h"}, {"measurement": "Dose 5 to Dose 1 ratio for AUC(0-24)", "setting": "[2]; male", "result": 1.3}, {"measurement": "Accumulation Ratio", "setting": "[2]; male, Dose 5 to Dose 1 AUC(0-24), 7.1 mg/kg IV", "result": 1.3}, {"measurement": "Cmax", "setting": "[2]; male, iv, 7.1 mg/kg, Dose 1, 7.1 mg/kg IV", "result": 514, "unit": "ng/mL"}, {"measurement": "Cmax", "setting": "[2]; male, iv, 7.1 mg/kg, Dose 5, 7.1 mg/kg IV once daily", "result": 485, "unit": "ng/mL"}, {"measurement": "AUC(0-t)", "setting": "[2]; male, iv, 7.1 mg/kg, male, Dose 1, 7.1 mg/kg IV, read-out: AUC(0-24)", "result": 779, "unit": "ng·h/mL"}, {"measurement": "half-life", "setting": "[2]; male, iv, 7.1 mg/kg, male, Dose 1, 7.1 mg/kg IV, read-out: T1/2 (converted)", "result": 6.8, "unit": "h"}, {"measurement": "AUC(0-t)", "setting": "[2]; male, iv, 7.1 mg/kg, male, Dose 5, 7.1 mg/kg IV once daily, read-out: AUC(0-24)", "result": 1010, "unit": "ng·h/mL"}, {"measurement": "half-life", "setting": "[2]; male, iv, 7.1 mg/kg, male, Dose 5, 7.1 mg/kg IV once daily, read-out: T1/2 (converted)", "result": 8.8, "unit": "h"}, {"measurement": "Cmax", "setting": "[2]; male, iv, 7.6 mg/kg, Dose 1", "result": 514, "unit": "ng/mL"}, {"measurement": "Cmax", "setting": "[2]; male, iv, 7.6 mg/kg, Dose 5", "result": 485, "unit": "ng/mL"}, {"measurement": "AUC(0-t)", "setting": "[2]; male, iv, 7.6 mg/kg, male, Dose 1, read-out: AUC(0-24)", "result": 779, "unit": "ng·h/mL"}, {"measurement": "AUC(0-t)", "setting": "[2]; male, iv, 7.6 mg/kg, male, Dose 5, read-out: AUC(0-24)", "result": 1010, "unit": "ng·h/mL"}, {"measurement": "half-life", "setting": "[2]; male, iv, 7.6 mg/kg, male, Dose 5, read-out: terminal half-life (converted)", "result": 8.8, "unit": "h"}, {"measurement": "half-life", "setting": "[2]; male, iv, 7.6 mg/kg, male, IV, Dose 1 (medium dose group, 7.6 mg/kg), read-out: terminal half-life (converted)", "result": 6.8, "unit": "h"}, {"measurement": "AUC(0-inf)", "setting": "[2]; female, Dose 1, 7.2 mg/kg IV", "result": 861, "unit": "ng·h/mL"}, {"measurement": "AUC(0-inf)", "setting": "[2]; iv, 7.6 mg/kg, female, Dose 1", "result": 861, "unit": "ng·h/mL"}, {"measurement": "AUC(0-inf)", "setting": "[2]; iv, 7.6 mg/kg, male, Dose 1", "result": 833, "unit": "ng·h/mL"}, {"measurement": "AUC(0-inf)", "setting": "[2]; male, Dose 1, 7.1 mg/kg IV", "result": 833, "unit": "ng·h/mL"}]}]}
